Results taken from paper PMC12566520, “Targeted Modification of the Antimicrobial Peptide DGL13K Reveals a Naturally Optimized Sequence for Topical Applications” (Microorganisms, 2025).
Where two headings read alike, the source gives them in different places. Square brackets hold non-standard residues; d marks the D form. Ends that are not written are not given here. Peptide text beside a SMILES is read from it. d(aIle) = CC[C@H](C)[C@@H](N)C(=O)O; aIle = CC[C@@H](C)[C@H](N)C(=O)O

Legend:
[1] = system: Pseudomonas aeruginosa Xen41; type: cell-based; settings: for MIC P. aeruginosa: overnight 37 °C, OD630
Method: (§1) Pseudomonas aeruginosa Xen41 and Staphylococcus aureus Xen36 were obtained from Xenogen (Alameda, CA; now Revvity, Waltham, MA, USA) and Revvity, respectively, and stored at −80 °C in 10% glycerol. P. aeruginosa were cultured in Luria-Bertani broth while S. aureus were cultured in Todd-Hewitt Broth (Difco, Franklin Lakes, NJ, USA) overnight at 37 °C and shaking at 200 rpm. Cultures typically reached an optical density at 600 nm of 1.7 for P. aeruginosa and 1.3 for S. aureus.
(§2) MIC assays were performed as previously described. Briefly, overnight cultures of P. aeruginosa Xen41 were diluted to 10^5 CFU/mL in Mueller-Hinton Broth (Difco) while S. aureus Xen36 were similarly diluted in Todd-Hewitt Broth. Bacteria (100 µL) were added to 20 µL of 2-fold peptide dilutions in 10% PBS in 96-well polypropylene culture plates. The plates were incubated overnight at 37 °C with gentle rocking and then the optical density at 630 nm (OD630) was recorded in a BioTek Synergy HT plate reader (BioTek, Winooski, VT, USA; now Agilent, Santa Clara, CA, USA). Bioluminescence was recorded for quality control of the bioluminescent bacteria.

[2] = system: Staphylococcus aureus Xen36; type: cell-based; settings: for MIC S. aureus: overnight 37 °C, OD630; for Antibacterial activity against S. aureus compared with unmodified peptide (in words): MIC assay
Method: as §1, §2

[3] = system: P. aeruginosa; set-up: method as in PMID 23917321; settings: bacterial proteases, cultures of Gram-negative P. aeruginosa; cited from earlier work
[4] = system: human red blood cells; settings: cited from earlier work
Source text: The selective activity of many AMPs exploits the compositional differences between prokaryotic and eukaryotic membranes to avoid mammalian cell toxicity. The selectivity of AMPs is typically determined as the ratio between the hemolytic concentration and the MIC of the AMP (therapeutic index). One measure of the hemolytic activity is the peptide concentration leading to 50% lysis of red blood cells (HC50 = hemolytic concentration 50). This assay is routinely used for screening purposes and the lack of red cell toxicity is an important consideration for IV delivery of an AMP. ...

[5] = cited from earlier work
[6] = aqueous stock 10 mg/mL in dH2O or 0.01% acetic acid, 4 °C, more than 2 years; cited from earlier work
Source text: Peptides are typically considered inherently unstable in aqueous solutions [57].

[7] = system: P. aeruginosa; assay: Heat stability (MIC assay after heating); type: physicochemical, Pseudomonas aeruginosa; settings: 1 mg/mL in 10% PBS, 80 °C for 60 min vs room temperature; read-out MIC assay against P. aeruginosa; duplicates, N = 2, repeated with similar results
Method: Peptides were diluted to 1 mg/mL in sterile 10% PBS (1 part PBS, 9 parts dH2O) and heated for 60 min in a 0.5 mL microcentrifuge tube in a water bath set at 80 °C. Control samples were similarly incubated at room temperature. The samples were used for MIC assays, as described below.
as §2
Figure 1 Heat stability of GL13K peptides. LGL13K (circles) or DGL13K (boxes) were incubated for 1 h at room temperature (open symbols) or 80 °C (closed symbols) and then used for an MIC assay against P. aeruginosa. Duplicate samples were tested and plotted as mean ± range, N = 2. The experiment was repeated with similar results.

[8] = system: Enterococcus faecalis; settings: cited from earlier work
Source text: Proteolytic processing of AMPs has been cited as a concern for their development for clinical use. DGL13K was originally designed to overcome proteolytic processing of the L-enantiomer in cultures of P. aeruginosa.

[9] = Table 2, Xen41, 10^5 CFU/mL in Mueller-Hinton Broth, median MIC of 1–3 independent experiments
[10] = Table 2, Xen36, 10^5 CFU/mL in Todd-Hewitt Broth, median MIC of 1–3 independent experiments
[11] = Table 3, Xen41, Mueller-Hinton Broth, median MIC of 2–4 independent experiments, values outside tested range set at 1000 µg/mL
[12] = Table 3, Xen36, Todd-Hewitt Broth, median MIC of 2–4 independent experiments, values outside tested range set at 1000 µg/mL

GKIIKLKASLKLL-NH2 [PEG-LGL13K, N-terminally PEGylated version of LGL13K]
Fold increase in MIC for P. aeruginosa versus unmodified parent peptide ([1]; compared with DGL13K (or LGL13K for PEG-LGL13K), Figure 4 / Table 3): three-fold
Fold increase in MIC for S. aureus versus unmodified parent peptide ([2]; compared with DGL13K (or LGL13K for PEG-LGL13K), Figure 4): two

GKIIKLKASLKLL-NH2 [LGL13K]
Proteolytic degradation in cultures of P. aeruginosa [3]: susceptible to bacterial proteases
MIC P. aeruginosa [1, 9]: 10.4 µg/mL
MIC S. aureus [2, 10]: 83.3 µg/mL
HC50 (peptide concentration leading to 50% lysis of red blood cells) [4]: 500 to 1000 µg/mL

CC[C@@H](C)[C@@H](NC(=O)[C@@H](Cc1c[nH]c2ccccc12)NC(=O)[C@@H](CCCCN)NC(=O)[C@@H](CCCCN)NC(=O)CN)C(=O)N[C@H](CCCCN)C(=O)N[C@H](CCCCN)C(=O)N[C@H](C)C(=O)N[C@H](CO)C(=O)N[C@H](CCCCN)C(=O)N[C@H](Cc1c[nH]c2ccccc12)C(=O)N[C@H](CC(C)C)C(=O)O [DGL12W] (H-G[dK][dK][dW][dI][dK][dK][dA][dS][dK][dW][dL]-OH; N-terminus assumed)
MIC P. aeruginosa [1, 11]: 13 µg/mL
Antibacterial activity against S. aureus compared with unmodified peptide (in words) [2]: lost its activity

CC[C@@H](C)[C@@H](NC(=O)[C@@H](CCCNC(=N)N)NC(=O)CN)C(=O)N[C@@H](C(=O)N[C@H](CCCNC(=N)N)C(=O)N[C@H](CC(C)C)C(=O)N[C@H](CCCNC(=N)N)C(=O)N[C@H](C)C(=O)N[C@H](CO)C(=O)N[C@H](CC(C)C)C(=O)N[C@H](CCCNC(=N)N)C(=O)N[C@H](CC(C)C)C(=O)N[C@H](CC(C)C)C(N)=O)[C@H](C)CC [DGL13R] (H-G[dR][dI][dI][dR][dL][dR][dA][dS][dL][dR][dL][dL]-NH2; N-terminus assumed)
Antibacterial activity against S. aureus compared with unmodified peptide (in words) [2]: not different from the parent peptide
MIC S. aureus [2, 12]: 2.6 µg/mL

CC[C@@H](C)[C@@H](NC(=O)[C@@H](CCCCN)NC(=O)CN)C(=O)N[C@@H](C(=O)N[C@H](CCCCN)C(=O)N[C@H](CC(C)C)C(=O)N[C@H](CCCCN)C(=O)N[C@H](C)C(=O)N[C@H](CO)C(=O)N[C@H](CC(C)C)C(=O)N[C@H](CCCCN)C(=O)N[C@H](CC(C)C)C(=O)N[C@H](CC(C)C)C(N)=O)[C@H](C)CC [DGL13K] (H-G[dK][dI][dI][dK][dL][dK][dA][dS][dL][dK][dL][dL]-NH2; N-terminus assumed)
stability of aqueous solution (no loss of antibacterial activity) [5]: > 2 years
Loss of antibacterial activity of aqueous solution after storage [6]: did not lose antibacterial activity
Proteolytic degradation in cultures of P. aeruginosa [3]: not degraded
Loss of activity after heating of solution [7]: no loss of activity
Proteolytic degradation in cultures of Enterococcus faecalis [8]: resists proteolytic degradation
MIC P. aeruginosa [1, 9]: 7.8 µg/mL
MIC P. aeruginosa [1, 11]: 5.2 µg/mL
MIC S. aureus [2, 10]: 2.6 µg/mL
MIC S. aureus [2, 12]: 1.3 µg/mL
HC50 (peptide concentration leading to 50% lysis of red blood cells) [4]: 500 to 1000 µg/mL

CC[C@H](C)[C@@H](NC(=O)[C@@H](CCCCN)NC(=O)CN)C(=O)N[C@@H](C(=O)N[C@H](CCCCN)C(=O)N[C@H](CC(C)C)C(=O)N[C@H](CCCCN)C(=O)N[C@H](C)C(=O)N[C@H](CO)C(=O)N[C@H](CC(C)C)C(=O)N[C@H](CCCCN)C(=O)N[C@H](CC(C)C)C(=O)N[C@H](CC(C)C)C(N)=O)[C@@H](C)CC [D-allo-Ile GL13K] (H-G[dK][d(aIle)][d(aIle)][dK][dL][dK][dA][dS][dL][dK][dL][dL]-NH2; N-terminus assumed)
MIC P. aeruginosa [1, 9]: 5.2 µg/mL
MIC S. aureus [2, 10]: 2.6 µg/mL

CC[C@@H](C)[C@H](NC(=O)[C@H](CCCCN)NC(=O)CN)C(=O)N[C@H](C(=O)N[C@@H](CCCCN)C(=O)N[C@@H](CC(C)C)C(=O)N[C@@H](CCCCN)C(=O)N[C@@H](C)C(=O)N[C@@H](CO)C(=O)N[C@@H](CC(C)C)C(=O)N[C@@H](CCCCN)C(=O)N[C@@H](CC(C)C)C(=O)N[C@@H](CC(C)C)C(N)=O)[C@H](C)CC [L-allo-Ile GL13K] (H-GK[aIle][aIle]KLKASLKLL-NH2; N-terminus assumed)
MIC P. aeruginosa [1, 9]: 10.4 µg/mL
MIC S. aureus [2, 10]: 83.3 µg/mL
